Tests used:
[1] = test system: LPS-induced sepsis in rats; assay: LPS-induced rat sepsis model; type: in vivo, SD rat; conditions: SMI0 150 mg/kg ig or celecoxib 5 mg/kg ig 30 min before LPS 5 mg/kg ip; 4 h, 5 h, 6 h; vs model group
Protocol: Rats: An SD rat sepsis model was constructed through single intraperitoneal injection of LPS (5 mg/kg). 30 min before LPS administration, rats in the model group were administered with NS (0.5 mL/kg, i.g.), rats in the positive control group were administered with celecoxib (5 mg/kg, i.g.), and rats in the CYP2E1 inhibition group were administered with the compound SMI0 (150 mg/kg, i.g.). After LPS administration, a body temperature of each rat was measured and recorded every hour until 9 h (control group, n=8 rats; model group, n=10 rats; celecoxib group, n=10 rats; and SMI0 compound group, n=10 rats).

[2] = test system: cognitive dysfunction in STZ-induced AD rat model; assay: STZ-induced AD rat model, Morris water maze; type: in vivo, SD rat; conditions: for Number of crossing platform / Time spent in the platform quadrant: MWM spatial exploration; for Number of crossing platform / Time spent in the platform quadrant / Incubation period Day 1 / Incubation period Day 2 / Incubation period Day 3 / Incubation period Day 4 / Incubation period Day 5 / Incubation period Day 6: n=15; for Incubation period Day 1 / Incubation period Day 2 / Incubation period Day 3 / Incubation period Day 4 / Incubation period Day 5 / Incubation period Day 6: MWM
Protocol: Experimental method: A male SD rat AD model was constructed through bilateral intracerebroventricular injection of STZ, where STZ was injected at 3 mg/kg on day 1 and STZ was injected at 1.5 mg/kg on day 3. STZ was injected into bilateral cerebral ventricles (0.9 mm posterior to the anterior fontanelle, 1.5 mm at the left or right of the sagittal suture, and below the brain surface and 3.8 mm to the skull) by a brain stereotaxic instrument. The sham-operated group was injected with a same volume of a control solvent according to same operations. The low-dose and high-dose prevention and treatment groups were intragastrically administered with the compound SMI0 respectively at 10 mg/kg and 30 mg/kg starting from day 11 after modeling, and the administration was conducted consecutively for 21 d. On day 14 of the continuous administration (that is, on […] of modeling), the Morris water maze (MWM) was used to conduct spatial positioning navigation training consecutively for 6 d, and a spatial exploration experiment was conducted 24 h after the spatial positioning navigation training was completed (15 rats in each group).

[3] = test system: CT26 cell lung metastasis; assay: Lung metastasis model, tail vein injection of CRC cell CT26; type: in vivo, Balb/C mouse; conditions: SMI0 30 mg/kg, 14 days
[4] = test system: U251 cells / M2 microglial cells; assay: U251 cells co-cultivated with M2 microglial cells; type: cell-based, human; conditions: SMI0 50 μmol/L vs M2 microglial cell co-cultivation group, P<0.001
Protocol: Experimental method: 10 1-2 d newborn C57BL/6 WT mice and 6 CYP2E1^−/− mice were taken, primary microglial cells and astrocytes were collected and inoculated into 6-well plates, and 24 h later, culture supernatants were taken and co-cultivated with glioma cells. Experimental groups: control group; M2 model group; high-concentration, medium-concentration, and low-concentration SMI0 (50 μmol/L, 12.5 μmol/L, and 3.1 μmol/L) groups; and CYP2E1 gene-knockout group. 24 h later, supernatants were discarded; and […] and IL-13 each were added at 20 ng/mL to induce the transformation of microglial cells into the M2 type in the M2 model group and the high-concentration, medium-concentration, and low-concentration SMI0 groups, and different concentrations of SMI0 (50 μmol/L, 12.5 μmol/L, and 3.1 μmol/L) were also added in the intervention groups. The proliferation of glioma cells was determined by a CCK8 method, and an apoptosis proportion was determined by an Annexin V-FITC-PI apoptosis staining kit.

[5] = test system: liver steatosis and hepatitis in mice caused by a high-fat diet; assay: Mouse liver steatosis and hepatitis model induced by a high-fat diet; type: in vivo, C57/6J mice; conditions: 22 weeks, vs model group
Protocol: Experimental method: Healthy male C57/6J mice were fed with a high-fructose, high-fat, and high-cholesterol feed to prepare mouse liver steatosis and hepatitis models, and a control group was fed with a low-fat and low-sugar control feed. An SMI0 intervention group was divided into a low-dose intervention group and a high-dose intervention group, which were intragastrically administered with the compound SMI0 at 30 mg/kg and 150 mg/kg every day from the beginning of modeling to the 22nd week of modeling. At the end of the 22-week experiment, blood was collected from the orbit, a body weight was measured, and then the mice each were sacrificed. The weight and appearance of a liver (color, texture, and presence or absence of nodules of the liver) were recorded. Some liver specimens were subjected to HE staining and then observed, and a steatosis score of mice in each group was recorded; and Masson staining was conducted to evaluate a liver fibrosis status of mice, and an oil red O staining area percentage and an LCA staining inflammation score were determined (model group, n=8 mice; SMI0 compound low-dose group, […]).
The pathological results of HE staining of a liver tissue were subjected to quantitative scoring based on the following criteria to determine a steatosis severity:
The pathological results of Masson staining of a liver tissue were subjected to quantitative scoring based on the following criteria to determine a fibrosis severity: […]

[6] = SMI0 high-dose 150 mg/kg ig daily
[7] = SMI0 low-dose 30 mg/kg ig daily

## CC(=O)c1scnc1C [SMI0]
[1]
  increase in body temperature in the LPS-induced sepsis rat model: avoided
[2]; SMI0 10 mg/kg ig
  Number of crossing platform: 5.1
  Time spent in the platform quadrant: 29.4%
[2]; SMI0 30 mg/kg ig
  Number of crossing platform: 8.2
  Time spent in the platform quadrant: 39.3%
[2]; SMI0 10 mg/kg ig for 21 d
  Incubation period Day 1: 95.7 s
  Incubation period Day 2: 61.1 s
  Incubation period Day 3: 39.5 s
  Incubation period Day 4: 33.2 s
  Incubation period Day 5: 23.1 s
  Incubation period Day 6: 18.5 s
[2]; SMI0 30 mg/kg ig for 21 d
  Incubation period Day 1: 94.6 s
  Incubation period Day 2: 52.7 s
  Incubation period Day 3: 35.9 s
  Incubation period Day 4: 25.2 s
  Incubation period Day 5: 20.0 s
  Incubation period Day 6: 18.6 s
[2]; SMI0 high-dose group (30 mg/kg), vs model group, significant
  improvement rate of ICV-STZ-induced cognitive dysfunction: 46.7%
[2]; SMI0 low-dose group (10 mg/kg), without a significant statistical difference
  improvement rate of ICV-STZ-induced cognitive dysfunction: 32.6%
[3]; vs model group
  lung weight: significantly reduced
  number of nodules: significantly reduced
[3]; as high as
  tumor proliferation inhibition rate: 66.7%
[4]
  proliferation of U251 cells: significantly inhibited
[5]; [6]
  liver inflammation level (number of LCA-positive cell staining foci): significantly reduced
  oil red O staining area percentage: significantly reduced
  steatosis score: significantly reduced
[5]; [7]
  liver coefficient: significantly reduced
  oil red O staining area percentage: significantly reduced
  steatosis score: significantly reduced

From patent publication US20230277508A1, “USE OF COMPOUND AS CYP2E1 INHIBITOR” (SHANGHAI LING XI BIOTECHNOLOGY DEVELOPMENT CO., LTD., priority 2020, published 2023)
